According to patent US10494380B2, “Nitrogen-containing tricyclic derivatives having HIV replication inhibitory activity” (priority 2015, dated 2019):
Read-outs that look alike come from different tables or passages of the source.

Legend:
[1] = tested on: HIV (HTLV-IIIB strain); assay: HIV replication inhibition assay (Test Example 1; MT-4 cells, MTT); format: cell-based; settings: MT-4 cells, MTT; for EC90: read-out: EC90; for EC50: read-out: EC50
Method in brief: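 MT-4 cells (2.5×10^4/well) were infected with HIV HTLV-IIIB (60 pfu) in the presence of compound and cultured 4 days at 37 °C. Cell viability was read by MTT reduction (OD 560/690 nm). EC50 and EC90 are the concentrations inhibiting virus-induced cytotoxicity by 50% and 90%.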

[2] = tested on: T125A mutant virus (HIV-1 NL-432 recombinant molecular clone, IN gene); assay: HIV replication inhibition assay against integrase 124/125 mutant virus (Test Example 2); format: cell-based
Method in brief: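 MT-4 cells (2.5×10^4 per well) infected with 60 pfu of 293T-derived HIV-1 NL-432 clone carrying integrase 124/125 point mutations, in presence of compound, cultured 4 days at 37 °C. Viability by MTT formazan at 560/690 nm; EC50 = concentration inhibiting 50% of virus-induced cytotoxicity.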

[3] = tested on: HIV; format: cell-based; settings: EC50 in the presence of human serum (25%) versus without human serum, MT-4 cells
Method in brief: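 Compound is preincubated 1 h at room temperature with human serum, or with medium alone as the serum-free control. MT-4 cells infected with HIV (1 h, 37° C) are added and cultured 4 days. EC50 is determined with and without serum; their ratio gives the potency shift.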

[4] = target: CYP2C9 (Homo sapiens (Human), UniProt P11712); assay: CYP inhibition assay, tolbutamide methyl-hydroxylation (Test Example 4); format: in vitro ADME; settings: pooled human hepatic microsome, 100 μmol/L tolbutamide, 15 minutes, 37° C.
Experimental: Using commercially available pooled human hepatic microsome, and employing, as markers, 7-ethoxyresorufin O-deethylation (CYP1A2), tolbutamide methyl-hydroxylation (CYP2C9), mephenytoin 4′-hydroxylation (CYP2C19), dextromethorphan O-demethylation (CYP2D6), and terfenadine hydroxylation (CYP3A4) as typical substrate metabolism reactions of human main five CYP enzyme forms (CYP1A2, 2C9, 2C19, 2D6, 3A4) an inhibitory degree of each metabolite production amount by a test compound was assessed.
The reaction conditions were as follows: substrate, 0.5 μmol/L ethoxyresorufin (CYP1A2), 100 μmol/L tolbutamide (CYP2C9), 50 μmol/L S-mephenytoin (CYP2C19), 5 μmol/L dextromethorphan (CYP2D6), 1 μmol/L terfenedine (CYP3A4); reaction time, 15 minutes; reaction temperature, 37° C.; enzyme, pooled human hepatic microsome 0.2 mg protein/mL; test drug concentration, 1, 5, 10, 20 μmol/L (four points).
Each five kinds of substrates, human hepatic microsome, and a test drug in 50 mmol/L Hepes buffer as a reaction solution was added to a 96-well plate as the composition ad described above, NADPH, as a coenzyme was added to initiate metabolism reactions as markers and, after the incubation at 37° C. for 15 minutes, a methanol/acetonitrile=1/1 (V/V) solution was added to stop the reaction. After the centrifugation at 3000 rpm for 15 minutes, resorufin (CYP1A2 metabolite) in the supernatant was quantified by a fluorescent multilabel counter and tolbutamide hydroxide (CYP2C9 metabolite), mephenytoin 4′ hydroxide (CYP2C19 metabolite), dextrorphan (CYP2D6 metabolite), and terfenadine alcohol (CYP3A4 metabolite) were quantified by LC/MS/MS.

[5] = tested on: sheep red blood cells (RBC); assay: Photohemolysis test (Test Example 13); format: cell-based; settings: 0.0008 to 0.1 w/v %, 10 J/cm2 UV-irradiation (290-400 nm)
Excerpt: Aliquots of sheep red blood cells (RBC) suspension prepared with medium to make a 2.5 v/v % concentration are dispensed into microplates. The compound of the present invention was desolved with a vehicle to make target concentrations and then these solutions were immediately added (in concentrations of 0.0008 to 0.1 w/v %) into the microplates. The mixtures on the microplates were exposed to 10 J/cm2 of UV-irradiation (UV-A and UV-B, 290-400 nm) with a GL20SE lamp (SANKYO DENKI) and a FL20S-BLB lamp (Panasonic). After the UV-irradiation, the mixtures were centrifuged. Aliquots of supernatant were transferred to a microplate. Absorbance of the supernatants was measured at 540 nm and 630 nm for judgement of the potential of phototoxicity. In the study, two endpoints were evaluated in biomembrane impairment (% of photohemolysis index; PI) and hyperoxidation of lipid membrane (methemoglobin formation; met-Hb) with the absorbance at 540 nm and 630 nm, respectively. PI and met-Hb were assessed based on the negative criteria (−), PI<10% and changes in absorbance at 630 nm<0.05, respectively. All else was judged as positive (+).

[6] = target: CYP3A4 (Homo sapiens (Human), UniProt P08684); assay: CYP3A4 (MDZ) MBI test (Test Example 6); settings: pooled human liver microsomes, midazolam 1-hydroxylation, preincubation 0 or 30 min
[7] = Human immunodeficiency virus 1, MT4, 96 h, HIV (HTLV-IIIB strain), four days
[8] = Human immunodeficiency virus 1, MT4, 96 h, HIV HTLV-IIIB strain, cultured four days
[9] = Human immunodeficiency virus 1, MT4, read-out: EC50 against T125A mutant virus, T125A mutant virus (HIV-1 NL-432 IN gene), MT-4 cells, MTT
[10] = HIV (HTLV-IIIB strain), four days
[11] = T125A mutant virus (HIV-1 NL-432 IN gene), MT-4 cells, MTT, read-out: EC50 against T125A mutant virus

Chain of CYP2C9 (P11712 whole entry): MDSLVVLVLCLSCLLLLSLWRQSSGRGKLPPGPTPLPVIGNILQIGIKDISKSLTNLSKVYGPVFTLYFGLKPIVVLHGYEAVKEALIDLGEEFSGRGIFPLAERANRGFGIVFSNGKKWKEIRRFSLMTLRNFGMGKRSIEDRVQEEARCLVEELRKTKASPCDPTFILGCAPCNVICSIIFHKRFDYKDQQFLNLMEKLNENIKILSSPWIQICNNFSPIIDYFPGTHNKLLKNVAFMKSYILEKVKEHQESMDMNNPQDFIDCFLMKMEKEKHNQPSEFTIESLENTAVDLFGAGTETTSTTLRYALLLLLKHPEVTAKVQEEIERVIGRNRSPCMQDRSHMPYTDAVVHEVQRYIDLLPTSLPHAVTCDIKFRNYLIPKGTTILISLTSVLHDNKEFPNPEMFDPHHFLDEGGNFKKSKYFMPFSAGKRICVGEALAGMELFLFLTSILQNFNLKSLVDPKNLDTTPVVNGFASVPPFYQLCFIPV
Chain of CYP3A4 (P08684 whole entry): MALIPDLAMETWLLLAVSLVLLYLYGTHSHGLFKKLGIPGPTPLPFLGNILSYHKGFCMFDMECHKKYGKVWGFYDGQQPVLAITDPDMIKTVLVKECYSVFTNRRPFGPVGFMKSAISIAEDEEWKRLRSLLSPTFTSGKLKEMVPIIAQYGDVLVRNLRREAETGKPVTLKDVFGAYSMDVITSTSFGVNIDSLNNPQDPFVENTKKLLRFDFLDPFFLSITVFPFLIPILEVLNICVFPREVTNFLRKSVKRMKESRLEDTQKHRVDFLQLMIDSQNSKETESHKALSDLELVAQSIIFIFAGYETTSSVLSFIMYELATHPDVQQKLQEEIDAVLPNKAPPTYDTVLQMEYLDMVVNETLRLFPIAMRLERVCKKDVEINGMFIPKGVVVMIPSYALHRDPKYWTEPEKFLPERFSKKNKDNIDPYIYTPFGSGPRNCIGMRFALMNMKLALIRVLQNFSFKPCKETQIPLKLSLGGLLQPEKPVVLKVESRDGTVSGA

Compound | EC90 [1, 7] | EC50 [1, 8] | EC50 [2, 9] | Potency shift value [3] | IC50 [4] | Photohemolysis test, potential of phototoxicity (PI and met-Hb) [5] | CYP3A4 (MDZ) MBI, shifted IC [6] | EC50 [1, 10] | EC90 [1, 10] | EC50 [2, 11] | EC50 [1, 7]
Cc1ccc(-c2c([C@H](OC(C)(C)C)C(=O)O)c(C)c3c4c2cc(C)n4C(C)CN3CCN(C)C)cc1 (single isomer, unassigned) [Compound I-164] | 20 nM | 11 nM | 42 nM | 2.6 | > 20000 nM | (−) (negative criteria (−), PI<10% and changes in absorbance at 630 nm<0.05, respectively) | (−) (When a shifted IC was 1.0 or less, this was defined as negative) | – | – | – | –
Cc1ccc(-c2c(C(OC(C)(C)C)C(=O)O)c(C)c3c4c2cc(C)n4CCN3CCN(C)C)cc1 (stereo not shown) [Compound I-027] | – | – | – | 1.4 | > 20000 nM | (−) (negative criteria (−), PI<10% and changes in absorbance at 630 nm<0.05, respectively) | (−) (When a shifted IC was 1.0 or less, this was defined as negative) | 9.9 nM | 16 nM | 26 nM | –
Cc1c([C@H](OC(C)(C)C)C(=O)O)c(-c2ccc(Cl)cc2)c2cc(C)n3c2c1N(S(C)(=O)=O)[C@@H](CC(F)F)C3 [Compound I-041] | 2.3 nM | – | 13 nM | 4.1 | > 20000 nM | (−) (negative criteria (−), PI<10% and changes in absorbance at 630 nm<0.05, respectively) | (−) (When a shifted IC was 1.0 or less, this was defined as negative) | – | – | – | 1.5 nM
COCC[C@H]1Cn2c(C)cc3c(-c4ccc(Cl)cc4)c([C@H](OC(C)(C)C)C(=O)O)c(C)c(c32)N1S(C)(=O)=O [Compound I-043] | – | – | – | 3.2 | > 20000 nM | (−) (negative criteria (−), PI<10% and changes in absorbance at 630 nm<0.05, respectively) | (−) (When a shifted IC was 1.0 or less, this was defined as negative) | 1.4 nM | 2.3 nM | 11 nM | –
Cc1c([C@H](OC(C)(C)C)C(=O)O)c(-c2ccc(Cl)cc2)c2cc(C)n3c2c1N(c1ncc(F)cn1)CC3 [Compound I-122] | 2.9 nM | – | 5.1 nM | 23 | > 20000 nM | (−) (negative criteria (−), PI<10% and changes in absorbance at 630 nm<0.05, respectively) | (−) (When a shifted IC was 1.0 or less, this was defined as negative) | – | – | – | 1.3 nM
COc1cnc(N2CCn3c(C)cc4c(-c5ccc(Cl)cc5)c([C@H](OC(C)(C)C)C(=O)O)c(C)c2c43)nc1 [Compound I-156] | 1.2 nM | – | 3.6 nM | 12 | > 20000 nM | (−) (negative criteria (−), PI<10% and changes in absorbance at 630 nm<0.05, respectively) | (−) (When a shifted IC was 1.0 or less, this was defined as negative) | – | – | – | 0.85 nM
Cc1c([C@H](OC(C)(C)C)C(=O)O)c(-c2ccc(Cl)cc2)c2cc(C)n3c2c1N(c1ncc2ccccc2n1)CC3 [Compound I-157] | – | – | 12 nM | 12 | > 20000 nM | – | (−) (When a shifted IC was 1.0 or less, this was defined as negative) | – | – | – | –
CCOc1cnc(N2CCn3c(C)cc4c(-c5ccc(Cl)cc5)c([C@H](OC(C)(C)C)C(=O)O)c(C)c2c43)nc1 [Compound I-181] | 2.3 nM | 1.4 nM | 3.5 nM | 17 | > 20000 nM | (−) (negative criteria (−), PI<10% and changes in absorbance at 630 nm<0.05, respectively) | (−) (When a shifted IC was 1.0 or less, this was defined as negative) | – | – | – | –
COc1cnc(N2CCn3c(C)cc4c(-c5ccc(C)cc5)c([C@H](OC(C)(C)C)C(=O)O)c(C)c2c43)nc1 [Compound I-189] | 3.2 nM | – | 3.1 nM | 22 | > 20000 nM | (−) (negative criteria (−), PI<10% and changes in absorbance at 630 nm<0.05, respectively) | (−) (When a shifted IC was 1.0 or less, this was defined as negative) | – | – | – | 1.6 nM
Cc1cnc(N2CCn3c(C)cc4c(-c5ccc(Cl)cc5)c([C@H](OC(C)(C)C)C(=O)O)c(C)c2c43)nc1 [Compound I-190] | 1.3 nM | – | 2.1 nM | 21 | > 20000 nM | (−) (negative criteria (−), PI<10% and changes in absorbance at 630 nm<0.05, respectively) | (−) (When a shifted IC was 1.0 or less, this was defined as negative) | – | – | – | 0.83 nM
Cc1ccc(-c2c([C@H](OC(C)(C)C)C(=O)O)c(C)c3c4c2cc(C)n4CCN3c2ncc(OCCN(C)C)cn2)cc1 [Compound I-220] | – | – | – | 3.7 | > 20000 nM | (−) (negative criteria (−), PI<10% and changes in absorbance at 630 nm<0.05, respectively) | (−) (When a shifted IC was 1.0 or less, this was defined as negative) | 6 nM | 11 nM | 14 nM | –
Cc1c([C@H](OC(C)(C)C)C(=O)O)c(-c2ccc(Cl)cc2)c2cc(C)n3c2c1N(c1ncc(OCCN(C)C)cn1)CC3 [Compound I-244] | 8 nM | – | 12 nM | 3.4 | > 20000 nM | (−) (negative criteria (−), PI<10% and changes in absorbance at 630 nm<0.05, respectively) | (−) (When a shifted IC was 1.0 or less, this was defined as negative) | – | – | – | 4.8 nM
Cc1c([C@H](OC(C)(C)C)C(=O)O)c(-c2ccc(Cl)cc2)c2cc(C)n3c2c1N(c1ncc(OCCCN(C)C)cn1)CC3 [Compound I-257] | 8.1 nM | – | 28 nM | 4 | > 20000 nM | (−) (negative criteria (−), PI<10% and changes in absorbance at 630 nm<0.05, respectively) | (−) (When a shifted IC was 1.0 or less, this was defined as negative) | – | – | – | 7.4 nM
